We go through two molecules from publication PMC13014312, “Fluorescence Discrimination of Cancer from Inflammation by Selective Targeting Folate Receptor α” (Chemical & Biomedical Imaging, 2025).

Molecules are shown by their SMILES. Read-outs that look alike come from different tables or passages of the source.

In experiment [1] the target is T1, folate receptor β (FRβ) (Homo sapiens, UniProt P14207).
T1 construct: gene FOLR2
Description: 3H-folic acid competition radioligand assay on […] cells transfected with FRβ. The format is cell-based.

The next experiment concerns the target T2, folate receptor α (FRα) (Homo sapiens, UniProt P15328).
T2 construct: gene FOLR1
Description: 3H-folic acid competition radioligand assay on […] cells transfected with FRα. The format is cell-based.

Experiment [2] addresses T1, folate receptor β (FRβ). The experiment in a line: 3H-folic acid competition radioligand assay on […] cells transfected with FRβ.

T1 sequence (P14207 17-230): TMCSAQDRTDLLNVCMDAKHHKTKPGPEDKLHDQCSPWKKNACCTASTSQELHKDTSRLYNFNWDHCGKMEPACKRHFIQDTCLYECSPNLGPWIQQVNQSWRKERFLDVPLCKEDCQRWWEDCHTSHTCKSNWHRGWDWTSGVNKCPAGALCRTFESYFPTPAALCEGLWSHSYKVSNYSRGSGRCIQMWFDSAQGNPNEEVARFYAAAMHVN
T2 sequence (P15328 25-234): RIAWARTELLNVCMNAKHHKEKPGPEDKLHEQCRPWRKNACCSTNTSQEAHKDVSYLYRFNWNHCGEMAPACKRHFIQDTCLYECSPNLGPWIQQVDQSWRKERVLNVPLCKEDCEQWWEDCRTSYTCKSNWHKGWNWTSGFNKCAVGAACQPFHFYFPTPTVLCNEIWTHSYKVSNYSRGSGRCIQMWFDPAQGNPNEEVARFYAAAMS

Broadly, the Kd is the free concentration of one partner at which half of the binding sites on the other are occupied at equilibrium, for simple one-to-one binding. Read a low Kd as a tighter complex. On to `CC1(C)C(=CC=C2CCCC(C=CC3=[N+](CCCCS(=O)(=O)[O-])c4ccc(S(=O)(=O)O)cc4C3(C)C)=C2Oc2ccc(C[C@H](NC(=O)c3ccc(CCc4c[nH]c5[nH]c(N)nc(=O)c45)cc3)C(=O)O)cc2)N(CCCCS(=O)(=O)O)c2ccc(S(=O)(=O)O)cc21` [NY-07], for which the Kd on folate receptor β (FRβ) [1] amounted to 0.487 µM; at folate receptor α (FRα), 0.0617 µM.
For the molecule `Nc1nc(=O)c2nc(CNc3ccc(C(=O)N[C@@H](CCC(=O)O)C(=O)O)cc3)cnc2[nH]1` [folate, folic acid], the Kd entry on folate receptor β (FRβ) [2] was “Assessment of K d of folate, OTL38, and NY-07 to FRβ”.
